Holding throughout (format): biochemical
The subject of assay [1] is Vaccinia Capping Enzyme (VCE).
In assay [2] the test system is Vaccinia Capping Enzyme (VCE). The source holds these as a separate data set.
Assay [3] relates to Cap0 or Cap1 25 mer transcript. The conditions noted are these: 5-135 ng protein, 10 minutes at 30° C.
The subject of assay [4] is 3′ DTB-GTP capped 25mer T7 transcript. The conditions noted are these: 30 minutes at 37° C. in 1× Thermopol Buffer.

“Also recorded” adds a separate entry of the source.

Consider `Nc1nc2c(ncn2[C@@H]2O[C@H](COP(=O)(O)OP(=O)(O)OP(=O)(O)O)[C@@H](O)[C@H]2O)c(=O)[nH]1` [GTP, reference compound], for which, in assay [1], the “recovery of transcript after streptavidin binding and biotin elution” value (“recovery of transcript” for short) is “little to no P^32”.

For the molecule `C#CCO[C@H]1[C@@H](O)[C@H](n2cnc3c(=O)[nH]c(N)nc32)O[C@@H]1COP(=O)(O)OP(=O)(O)OP(=O)(O)O` [3′ propargyl-GTP, 3′(O-Propargyl) Guanosine 5′ Triphosphate], the “capping of 5′ triphosphorylated RNA by VCE” value in assay [2] is on record as “efficiently incorporated as a modified cap”.

Turning to “2′-DBT-TEG-guanosine 5′ triphosphate [2′ DBT-TEG-GTP]”, the “recovery of transcript” value in assay [1] is “little to no P^32; also recorded: no better than control GTP for recovery”.

As for `[N-]=[N+]=N[C@H]1C[C@H](n2cnc3c(=O)[nH]c(N)nc32)O[C@@H]1COP(=O)(O)OP(=O)(O)OP(=O)(O)O` [3′-azido-GTP, 3′-Azido-2′,3′ ddGTP, reference compound], the “capping of 5′ triphosphorylated RNA by VCE” value in assay [2] was “can be capped”.

For “3′-DBT-TEG-guanosine 5′ triphosphate [3′ DBT-TEG-GTP]”, in assay [2], the “capping of 5′ diphosphate RNA by VCE” value is given as “substrate for capping” and the “capping of 5′ triphosphorylated RNA by VCE” value is “effectively caps”. Besides, the “recovery of transcript” value in assay [1] is “selectively bound to the streptavidin beads and eluted with 10 mM biotin; also recorded: recovered after binding to streptavidin”.

B1: S. pombe HNT3 protein (protein, UniProt O74859 1-232, looked up)
Aprataxin-like protein: MSVHKTNDAFKVLMNSAKEPIVEDIPKKYRKQSFRDNLKVYIESPESYKNVIYYDDDVVLVRDMFPKSKMHLLLMTRDPHLTHVHPLEIMMKHRSLVEKLVSYVQGDLSGLIFDEARNCLSQQLTNEALCNYIKVGFHAGPSMNNLHLHIMTLDHVSPSLKNSAHYISFTSPFFVKIDTPTSNLPTRGTLTSLFQEDLKCWRCGETFGRHFTKLKAHLQEEYDDWLDKSVSM
Turning to B1, the “decapping of capped RNA” value in assay [3] is given as “can decap RNA”.

B2: RppH (protein, UniProt P0A776 1-176, looked up)
RNA pyrophosphohydrolase: MIDDDGYRPNVGIVICNRQGQVMWARRFGQHSWQFPQGGINPGESAEQAMYRELFEEVGLSRKDVRILASTRNWLRYKLPKRLVRWDTKPVCIGQKQKWFLLQLVSGDAEINMQTSSTPEFDGWRWVSYWYPVRQVVSFKRDVYRRVMKEFASVVMSLQENTPKPQNASAYRRKRG
Consider B2, for which, in assay [4], the “decapping of DTB-GTP-capped RNA” value is “effectively decaps”.

The values are drawn from patent US20230022745A1, “Methods for Labeling a Population of RNA Molecules” (priority 2013, published 2023).
